The source made the active and inactive calls. The rule behind the calls is not given here.
Assays:
[1] = tested on: QG-56; experiment: Antiproliferative activity against human QG56 cells after 3 days; type: functional, cell-based; details: QG-56, 72 h
[2] = tested on: NCI-H460; experiment: Antiproliferative activity against human NCI-H460 cells after 3 days; type: functional, cell-based; details: NCI-H460, 72 h
[3] = tested on: HCT-116; experiment: Antiproliferative activity against human HCT116 cells after 3 days; type: functional, cell-based; details: HCT-116, 72 h
[4] = tested on: PC-6; experiment: Antiproliferative activity against human PC6 cells carrying pRC after 6 days; type: functional, cell-based; details: PC-6, 144 h
[5] = tested on: PC-6; experiment: Antiproliferative activity against human PC6 expressing BCRP cells after 6 days; type: functional, cell-based; details: PC-6, 144 h
[6] = tested on: HCT-116; experiment: Antitumor activity against BCRP-negative human HCT116 cells xenografted in mouse at 40 mg/kg, iv administered as single bolus dose for 3 weeks; type: functional, organism-based; parameters: dose 40 mg/kg
[7] = tested on: NCI-H460; experiment: Antitumor activity against BCRP-positive human NCI-H460 cells xenografted in mouse at 40 mg/kg, iv administered as single bolus dose for 3 weeks; type: functional, organism-based; parameters: dose 40 mg/kg
[8] = tested on: PC-6; experiment: Ratio of IC50 for human PC6 expressing BCRP cells to IC50 for human PC6 cells carrying pRC; type: functional
[9] = Toxicity to iv dosed mouse administered as single bolus dose for 3 weeks; type: organism-based; details: in vivo
[10] = tested on: NCI-H460; experiment: Antitumor activity against BCRP-positive human NCI-H460 cells xenografted in mouse at 100 mg/kg, iv administered as single bolus dose for 3 weeks; type: functional, organism-based; parameters: dose 100 mg/kg
[11] = target: T1, DNA topoisomerase 1 (Homo sapiens, UniProt P11387); experiment: Inhibition of human topoisomerase 1
T1 sequence (P11387 whole entry): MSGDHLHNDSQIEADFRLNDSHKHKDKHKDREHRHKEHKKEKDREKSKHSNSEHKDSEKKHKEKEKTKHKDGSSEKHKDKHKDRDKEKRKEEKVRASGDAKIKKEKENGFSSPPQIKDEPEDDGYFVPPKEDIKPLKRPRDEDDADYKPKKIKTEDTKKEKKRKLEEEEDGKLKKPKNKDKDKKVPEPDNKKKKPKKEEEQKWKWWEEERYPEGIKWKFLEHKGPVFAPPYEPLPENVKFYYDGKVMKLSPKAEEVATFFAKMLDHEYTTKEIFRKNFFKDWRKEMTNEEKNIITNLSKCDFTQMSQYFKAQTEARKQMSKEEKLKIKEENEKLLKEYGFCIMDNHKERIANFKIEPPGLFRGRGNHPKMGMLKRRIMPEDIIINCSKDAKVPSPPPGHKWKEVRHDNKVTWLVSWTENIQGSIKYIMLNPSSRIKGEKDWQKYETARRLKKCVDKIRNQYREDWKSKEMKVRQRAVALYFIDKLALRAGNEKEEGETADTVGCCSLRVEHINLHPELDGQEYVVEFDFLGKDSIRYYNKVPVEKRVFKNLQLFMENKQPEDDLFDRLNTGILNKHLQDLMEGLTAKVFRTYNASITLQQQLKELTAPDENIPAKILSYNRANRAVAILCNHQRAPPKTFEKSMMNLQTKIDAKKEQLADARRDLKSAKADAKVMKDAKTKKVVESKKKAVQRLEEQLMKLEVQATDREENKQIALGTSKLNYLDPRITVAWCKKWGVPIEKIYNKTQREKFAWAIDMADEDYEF

[12] = tested on: HCT-116; experiment: Antitumor activity against BCRP-negative human HCT116 cells xenografted in mouse at 100 mg/kg, iv administered as single bolus dose for 3 weeks; type: functional, organism-based; parameters: dose 100 mg/kg

| SMILES | IC50 [1] | IC50 [2] | IC50 [3] | further results |
| --- | --- | --- | --- | --- |
| CC[C@@]1(O)C(=O)OCc2c1cc1n(c2=O)Cc2c-1nc1cccc3c1c2N(CCC(C)C)C=N3 | 0.25 nM | 0.11 nM | < 0.04 nM |  |
| CC[C@@]1(O)C(=O)OCc2c1cc1n(c2=O)Cc2c-1nc1cccc3c1c2N(CCc1ccccc1)C(=O)N3 | 1.2 nM | 0.38 nM | 0.25 nM |  |
| CC[C@@]1(O)C(=O)OCc2c1cc1n(c2=O)Cc2c-1nc1cccc3c1c2N(CCc1ccccc1)C=N3 | 2.1 nM | 0.91 nM | 0.36 nM |  |
| CC[C@@]1(O)C(=O)OCc2c1cc1n(c2=O)Cc2c-1nc1cccc3c1c2N(CCN1CCOCC1)C(=O)N3 | 18 nM | 26 nM | 3.6 nM |  |
| CCCCCN1C(=O)Nc2cccc3nc4c(c1c23)Cn1c-4cc2c(c1=O)COC(=O)[C@]2(O)CC | 8.5 nM | 8.2 nM | 0.85 nM |  |
| CC[C@@]1(O)C(=O)OCc2c1cc1n(c2=O)Cc2c-1nc1cccc3c1c2N(CCC(C)C)C(=S)N3 | 0.16 nM | 0.08 nM | 0.02 nM |  |
| CC[C@@]1(O)C(=O)OCc2c1cc1n(c2=O)Cc2c-1nc1cccc3c1c2N(CCC(C)C)C(CO)=N3 | 1.8 nM | 0.52 nM | 0.44 nM |  |
| CC[C@@]1(O)C(=O)OCc2c1cc1n(c2=O)Cc2c-1nc1cccc3c1c2N(CCN1CCOCC1)C=N3 | 9.4 nM | 7.2 nM | 2.2 nM |  |
| CCCCCN1C(C)=Nc2cccc3nc4c(c1c23)Cn1c-4cc2c(c1=O)COC(=O)[C@]2(O)CC | 1.8 nM | 0.66 nM | 0.12 nM |  |
| CCCCN1C(=O)Nc2cccc3nc4c(c1c23)Cn1c-4cc2c(c1=O)COC(=O)[C@]2(O)CC | 1.2 nM | 0.99 nM | 0.4 nM |  |
| CC[C@@]1(O)C(=O)OCc2c1cc1n(c2=O)Cc2c-1nc1cccc3c1c2N(CCC(C)C)C(=O)N3 | 0.58 nM | 0.72 nM | 0.05 nM |  |
| CCCCN1C=Nc2cccc3nc4c(c1c23)Cn1c-4cc2c(c1=O)COC(=O)[C@]2(O)CC | 2.3 nM | 1.6 nM | 0.52 nM |  |
| CCCCCN1C=Nc2cccc3nc4c(c1c23)Cn1c-4cc2c(c1=O)COC(=O)[C@]2(O)CC | 2.3 nM | 2.3 nM | 0.36 nM | IC50 [4]: 0.18 nM; IC50 [5]: 0.35 nM; Activity [6]: Active; Activity [7]: Active; Ratio IC50 [8]: 2; MTD at 504 h [9]: 40 mg/kg; Activity [10]: Active; IC50 [11]: 2.3 µM; Activity [12]: Active |
| CCc1c2c(nc3ccc(O)cc13)-c1cc3c(c(=O)n1C2)COC(=O)[C@]3(O)CC [7-ETHYL-10-HYDROXYCAMPTOTHECIN] | 2.8 nM | 3.3 nM | 0.55 nM | IC50 [4]: 0.43 nM; IC50 [5]: 5.1 nM; Ratio IC50 [8]: 12; IC50 [11]: 5.5 µM |
| CCc1c2c(nc3ccc(OC(=O)N4CCC(N5CCCCC5)CC4)cc13)-c1cc3c(c(=O)n1C2)COC(=O)[C@]3(O)CC [IRINOTECAN] |  |  |  | MTD at 504 h [9]: 100 mg/kg |
